Assay results published in patent US6815556B2, “Compounds having fungicidal activity and processes to make and use same” (Dow AgroSciences LLC, priority 2000, dated 2004).
Read-outs that look alike come from different tables or passages of the source.

Experiments:
[1] = system: Phytophthora infestans; assay: whole plant or invertebrate; type: in vivo; settings: 24 h, read-out: PHYTIN percent control
[2] = system: Plasmopara viticola; assay: whole plant or invertebrate; type: in vivo; settings: 24 h, read-out: PLASVI percent control
[3] = system: Septoria tritici; assay: Leaf Blotch of Wheat, 1-day protectant whole plant test; type: in vivo; settings: Zymoseptoria tritici, 24 h, read-out: SEPTTR percent control
[4] = 100 ppm spray, wheat plants (variety Monon), one-day protectant test, vs untreated inoculated plants

SMILES | pest or weed control at 100 ppm [1] [%] | pest or weed control at 100 ppm [2] [%] | pest or weed control at 100 ppm [3, 4] [%] | melting point [°C] | pest or weed control at 100 ppm [3] [%]
CC(C)OC(=O)N[C@H](CS(=O)(=O)C(C)c1ccc(Br)cc1)C(C)C (some centres unmarked) [Compound 1] | 90 to 100 | 90 to 100 | < 20 | 60 to 70 | 
CC(C)OC(=O)N[C@H](CS(=O)(=O)C(C)c1ccc(C#N)cc1)C(C)C (some centres unmarked) [Compound 2] | 90 to 100 | 90 to 100 | < 20 | 110 to 120 | 
CC(C)OC(=O)N[C@H](CS(=O)(=O)C(C)c1cccc(F)c1)C(C)C (some centres unmarked) [Compound 3] | 90 to 100 | 50 to 89 |  |  | 
CC(C)OC(=O)N[C@H](CS(=O)(=O)C(C)c1ccc(OC(F)(F)F)cc1)C(C)C (some centres unmarked) [Compound 4] | 90 to 100 | 90 to 100 | < 20 | 50 to 60 | 
CC(C)OC(=O)N[C@H](CS(=O)(=O)C(C)c1ccc(Cl)c(Cl)c1)C(C)C (some centres unmarked) [Compound 5] | 90 to 100 | 50 to 89 | < 20 | 75 to 85 | 
CC(C)OC(=O)N[C@H](CS(=O)(=O)C(C)c1ccc(-c2ccccc2)cc1)C(C)C (some centres unmarked) [Compound 6] | 90 to 100 | 90 to 100 |  |  | 
CC(C)OC(=O)N[C@H](CS(=O)(=O)C(C)c1ccc(Br)nc1)C(C)C (some centres unmarked) [Compound 8] | 50 to 89 | 50 to 89 | < 20 |  | 
CC(C)OC(=O)N[C@H](CS(=O)(=O)C(C)c1ccc(C#N)s1)C(C)C (some centres unmarked) [Compound 9] | 90 to 100 | 90 to 100 |  |  | 
CC(C)OC(=O)N[C@H](CS(=O)(=O)C(C)c1nc2ccc(Br)cc2s1)C(C)C (some centres unmarked) [Compound 10] | 90 to 100 | 90 to 100 |  |  | 
C#Cc1ccc(C(C)S(=O)(=O)C[C@@H](NC(=O)OC(C)C)C(C)C)cc1 (some centres unmarked) [Compound 11] | 90 to 100 | 50 to 89 | 50 to 89 | 125 to 135 | 
CON=Cc1ccc(C(C)S(=O)(=O)C[C@@H](NC(=O)OC(C)C)C(C)C)cc1 (some centres unmarked) [Compound 12] | 90 to 100 | 90 to 100 |  |  | 
CC(C)OC(=O)N[C@H](CS(=O)(=O)C(C)c1ccc([N+](=O)[O-])cc1)C(C)C (some centres unmarked) [Compound 13] | 90 to 100 | 90 to 100 | < 20 |  | 
COC(=O)c1ccc(C(C)S(=O)(=O)C[C@@H](NC(=O)OC(C)C)C(C)C)cc1 (some centres unmarked) [Compound 14] | 90 to 100 | 90 to 100 |  | 140 to 145 | 
CC(C)OC(=O)N[C@H](CS(=O)(=O)C(C)c1ccc(C=O)cc1)C(C)C (some centres unmarked) [Compound 15] | 90 to 100 | 90 to 100 |  | 50 to 60 | 
CC(C)OC(=O)N[C@H](CS(=O)(=O)C(C)c1ccc2ccccc2c1)C(C)C (some centres unmarked) [Compound 16] | 90 to 100 | 50 to 89 |  |  | 
CC(C)[C@@H](CS(=O)(=O)C(C)c1ccc(Br)cc1)NC(=O)Oc1ccccc1 (some centres unmarked) [Compound 17] | 90 to 100 | 90 to 100 |  | 55 to 65 | 20 to 49
CC(C)[C@@H](CS(=O)(=O)C(C)c1ccc(C#N)cc1)NC(=O)Oc1ccc(F)cc1 (some centres unmarked) [Compound 18] | 90 to 100 | 90 to 100 |  |  | 50 to 89
Cc1cccc(OC(=O)N[C@H](CS(=O)(=O)C(C)c2ccc(C#N)cc2)C(C)C)c1 (some centres unmarked) [Compound 19] | 90 to 100 | 90 to 100 |  |  | 
CC(C)[C@@H](CS(=O)(=O)C(C)c1ccc(Br)cc1)NC(=O)OC(C)(C)C (some centres unmarked) [Compound 20] | 90 to 100 | 50 to 89 | 20 to 49 |  | 
C#CCCOC(=O)N[C@H](CS(=O)(=O)C(C)c1ccc(Br)cc1)C(C)C (some centres unmarked) [Compound 21] | 90 to 100 | 50 to 89 | 50 to 89 |  | 
CC(C)OC(=O)N[C@H](CS(=O)(=O)C(Cl)c1ccc(Cl)cc1)C(C)C (some centres unmarked) [Compound 22, isopropyl 1-({[chloro(4-chlorophenyl)methyl]sulfonyl}methyl)-2-methylpropylcarbamate] | 90 to 100 | 90 to 100 | < 20 | 140 to 143 | 
CCC(c1ccc(Cl)cc1)S(=O)(=O)C[C@@H](NC(=O)OC(C)C)C(C)C (some centres unmarked) [Compound 23] | 50 to 89 | 50 to 89 | 50 to 89 |  | 

SMILES | pest or weed control at 100 ppm [1] [%] | pest or weed control at 100 ppm [2] [%] | pest or weed control at 100 ppm [3, 4] [%] | melting point [°C] | pest or weed control at 100 ppm [3] [%]
CC(C)OC(=O)N[C@H](CS(=O)(=O)C(C)c1ccc(Br)c([N+](=O)[O-])c1)C(C)C (some centres unmarked) [Compound 24] | 90 to 100 | 90 to 100 |  |  | 
CC(C)OC(=O)N[C@H](CS(=O)(=O)C(C)c1cc2ccc(F)cc2o1)C(C)C (some centres unmarked) [Compound 25] | 90 to 100 | 90 to 100 |  |  | 
C=CCC(c1ccc(C#N)cc1)S(=O)(=O)C[C@@H](NC(=O)Oc1ccc(C)cc1)C(C)C (some centres unmarked) [Compound 26] | 90 to 100 | 90 to 100 |  |  | 
CC(C)[C@@H](CS(=O)(=O)C(C)c1ccc(C#N)cc1)NC(=O)OCC(Cl)(Cl)Cl (some centres unmarked) [Compound 27] | 90 to 100 | 90 to 100 | 50 to 89 |  | 
C=C(C)OC(=O)N[C@H](CS(=O)(=O)C(C)c1ccc(C#N)cc1)C(C)C (some centres unmarked) [Compound 28] | 90 to 100 | 90 to 100 |  |  | 
Cc1ccc(OC(=O)N[C@H](CS(=O)(=O)C(C)c2ccc(C#N)cc2)C(C)C)cc1 (some centres unmarked) [Compound 29] | 90 to 100 | 90 to 100 |  | 65 to 74 | 50 to 89
CC(C)[C@@H](CS(=O)(=O)C(C)c1ccc(C#N)cc1)NC(=O)Oc1ccc(Br)cc1 (some centres unmarked) [Compound 30] | 90 to 100 | 90 to 100 |  |  | 
CC(C)[C@@H](CS(=O)(=O)C(C)c1ccc(Br)cc1)NC(=O)Oc1ccc2ccccc2c1 (some centres unmarked) [Compound 31] | 90 to 100 | 90 to 100 |  | 129 to 135 | 
CCOc1ccc(OC(=O)N[C@H](CS(=O)(=O)C(C)c2ccc(Br)cc2)C(C)C)cn1 (some centres unmarked) [Compound 32] | 90 to 100 | 90 to 100 |  |  | 
Cc1ccc(OC(=O)N[C@H](CS(=O)(=O)C(C)c2ccc(C#N)cc2)C(C)C)cc1C (some centres unmarked) [Compound 33] | 90 to 100 | 90 to 100 |  |  | 
CC(C)[C@@H](CS(=O)(=O)C(C)c1ccc(C#N)cc1)NC(=O)Oc1ccccc1Br (some centres unmarked) [Compound 34] | 90 to 100 | 90 to 100 |  |  | 
CC(C)OC(=S)N[C@H](CS(=O)(=O)C(C)c1ccc(C#N)cc1)C(C)C (some centres unmarked) [Compound 35] | 90 to 100 | 90 to 100 |  |  | 
CCSC(=O)N[C@H](CS(=O)(=O)C(C)c1ccc(C#N)cc1)C(C)C (some centres unmarked) [Compound 36] | 50 to 89 | 50 to 89 |  |  | 
CC(C)[C@@H](CS(=O)(=O)C(C)c1ccc(C#N)cc1)NC(=O)Nc1ccc(C(F)(F)F)cc1 (some centres unmarked) [Compound 37] | 90 to 100 | 90 to 100 |  |  | 
CC[C@@H](CS(=O)(=O)C(C)c1ccc(C#N)cc1)NC(=O)Oc1ccc(C)cc1 (some centres unmarked) [Compound 38] | 90 to 100 | 90 to 100 |  | 50 to 60 | 
CCC(C)[C@@H](CS(=O)(=O)C(C)c1ccc(Br)cc1)NC(=O)OC(C)C (some centres unmarked) [Compound 39] | 90 to 100 | 90 to 100 |  |  | 
COC(C)[C@@H](CS(=O)(=O)C(C)c1ccc(C#N)cc1)NC(=O)Oc1ccc(C)cc1 (some centres unmarked) [Compound 40] | 90 to 100 | 90 to 100 |  |  | 
CC(c1ccc(C#N)cc1)S(=O)(=O)C[C@H](CC1CCCCC1)NC(=O)OC(C)(C)C (some centres unmarked) [Compound 41] | 50 to 89 | 90 to 100 |  | 58 to 65 | 
CC[C@@H](CS(=O)(=O)C(C)c1ccc(C#N)cc1)NC(=O)Oc1ccc(F)cc1 (some centres unmarked) [Compound 42] | 90 to 100 | 90 to 100 |  | 50 to 62 | 
COc1cccc(OC(=O)N[C@H](CS(=O)(=O)C(C)c2ccc(C#N)cc2)C(C)C)c1 (some centres unmarked) [Compound 43] | 50 to 89 | 90 to 100 |  | 50 to 53 | 
CC(C)OC(=O)N[C@@H](C(C)C)C(C)S(=O)(=O)C(C)c1ccc(Br)cc1 (some centres unmarked) [Compound 44] | 90 to 100 | 50 to 89 |  |  | 
